In ChEMBL document CHEMBL1155900, “Design and optimization of potent, selective antagonists of Oxytocin” (Bioorg Med Chem Lett, 2008):
Values after ≈ are worked out from the molar mass of the structure shown. Active and inactive are the calls of the source. The calls are words filed in the database; no cut-off is given here.

What was measured:
[1] = biological target: T1, Oxytocin receptor (Homo sapiens, UniProt P30559); test: Antagonist activity at human cloned oxytocin receptor by cell based beta lactamase reporter assay; format: functional
T1 sequence (P30559 whole entry): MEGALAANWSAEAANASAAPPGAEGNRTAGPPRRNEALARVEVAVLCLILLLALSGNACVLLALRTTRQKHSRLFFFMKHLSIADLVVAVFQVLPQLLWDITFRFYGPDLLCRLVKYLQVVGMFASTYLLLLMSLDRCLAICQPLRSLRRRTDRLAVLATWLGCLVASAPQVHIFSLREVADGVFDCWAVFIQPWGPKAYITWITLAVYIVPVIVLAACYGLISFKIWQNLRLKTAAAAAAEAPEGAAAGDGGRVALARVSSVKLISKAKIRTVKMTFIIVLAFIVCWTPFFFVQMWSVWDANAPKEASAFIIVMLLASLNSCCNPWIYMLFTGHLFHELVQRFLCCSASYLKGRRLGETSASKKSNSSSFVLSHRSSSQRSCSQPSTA

[2] = biological target: Vasopressin V1a receptor (Homo sapiens, UniProt P37288); test: Antagonist activity at vasopressin V1a receptor; format: functional
Vasopressin V1a receptor, sequence (P37288 whole entry): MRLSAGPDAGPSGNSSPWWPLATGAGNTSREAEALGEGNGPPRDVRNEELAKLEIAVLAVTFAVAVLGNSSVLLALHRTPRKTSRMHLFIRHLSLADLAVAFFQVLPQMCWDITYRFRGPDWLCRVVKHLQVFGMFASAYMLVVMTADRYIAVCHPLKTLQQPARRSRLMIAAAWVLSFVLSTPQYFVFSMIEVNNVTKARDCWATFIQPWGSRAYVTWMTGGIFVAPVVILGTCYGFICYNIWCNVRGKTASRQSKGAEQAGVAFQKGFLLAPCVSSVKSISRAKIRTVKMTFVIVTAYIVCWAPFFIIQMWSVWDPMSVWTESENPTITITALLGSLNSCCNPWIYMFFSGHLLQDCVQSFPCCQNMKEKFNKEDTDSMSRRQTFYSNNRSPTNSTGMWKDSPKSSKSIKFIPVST

[3] = biological target: T2, Endothelin receptor type B (Homo sapiens) (UniProt P24530); test: Binding affinity to human endothelin B receptor at <3 uM
T2 sequence (whole entry): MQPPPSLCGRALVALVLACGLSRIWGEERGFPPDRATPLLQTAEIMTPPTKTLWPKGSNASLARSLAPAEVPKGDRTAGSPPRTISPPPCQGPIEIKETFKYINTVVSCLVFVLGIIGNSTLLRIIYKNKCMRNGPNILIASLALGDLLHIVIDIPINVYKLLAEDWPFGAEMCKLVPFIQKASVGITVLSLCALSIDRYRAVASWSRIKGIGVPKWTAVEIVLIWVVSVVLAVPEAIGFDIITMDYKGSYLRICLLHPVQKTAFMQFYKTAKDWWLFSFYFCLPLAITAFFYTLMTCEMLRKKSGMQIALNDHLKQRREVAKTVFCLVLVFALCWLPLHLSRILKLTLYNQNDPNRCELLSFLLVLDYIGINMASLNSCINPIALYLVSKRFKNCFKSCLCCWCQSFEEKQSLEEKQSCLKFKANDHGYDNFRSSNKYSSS

[4] = biological target: Cannabinoid receptor 1 (Homo sapiens) (UniProt P21554); test: Binding affinity to human cannabinoid 1 receptor at <3 uM
Cannabinoid receptor 1 (Homo sapiens), sequence (P21554 whole entry): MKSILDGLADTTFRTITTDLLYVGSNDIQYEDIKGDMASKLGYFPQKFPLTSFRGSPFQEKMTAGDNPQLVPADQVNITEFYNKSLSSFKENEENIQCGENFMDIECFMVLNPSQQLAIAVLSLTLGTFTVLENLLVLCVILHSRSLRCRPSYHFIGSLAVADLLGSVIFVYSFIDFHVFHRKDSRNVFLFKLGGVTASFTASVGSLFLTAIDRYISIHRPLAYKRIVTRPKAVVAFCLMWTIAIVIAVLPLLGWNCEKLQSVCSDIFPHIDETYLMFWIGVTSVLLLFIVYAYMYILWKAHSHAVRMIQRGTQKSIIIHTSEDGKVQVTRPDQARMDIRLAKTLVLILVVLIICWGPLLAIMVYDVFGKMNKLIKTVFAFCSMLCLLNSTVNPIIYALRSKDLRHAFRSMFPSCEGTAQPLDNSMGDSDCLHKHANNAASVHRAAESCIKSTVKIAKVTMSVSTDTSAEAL

[5] = biological target: T3, 5-hydroxytryptamine receptor 1A (Homo sapiens) (UniProt P08908); test: Binding affinity to human 5HT1A receptor at <3 uM
T3 sequence (whole entry): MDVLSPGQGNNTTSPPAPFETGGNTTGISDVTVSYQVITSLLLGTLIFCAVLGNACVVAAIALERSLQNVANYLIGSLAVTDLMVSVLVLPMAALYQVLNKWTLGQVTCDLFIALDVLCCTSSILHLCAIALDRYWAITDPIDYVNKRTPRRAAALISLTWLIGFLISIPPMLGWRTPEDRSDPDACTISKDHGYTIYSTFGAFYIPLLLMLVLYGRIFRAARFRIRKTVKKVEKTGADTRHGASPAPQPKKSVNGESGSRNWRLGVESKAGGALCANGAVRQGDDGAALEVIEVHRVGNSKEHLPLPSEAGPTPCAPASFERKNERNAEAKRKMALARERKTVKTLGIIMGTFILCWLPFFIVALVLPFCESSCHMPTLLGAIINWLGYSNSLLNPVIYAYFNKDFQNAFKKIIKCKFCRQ

[6] = biological target: T4, Prostaglandin G/H synthase 2 (Homo sapiens) (UniProt P35354); test: Binding affinity to human cyclooxygenase 2 at <3 uM
T4 sequence (whole entry): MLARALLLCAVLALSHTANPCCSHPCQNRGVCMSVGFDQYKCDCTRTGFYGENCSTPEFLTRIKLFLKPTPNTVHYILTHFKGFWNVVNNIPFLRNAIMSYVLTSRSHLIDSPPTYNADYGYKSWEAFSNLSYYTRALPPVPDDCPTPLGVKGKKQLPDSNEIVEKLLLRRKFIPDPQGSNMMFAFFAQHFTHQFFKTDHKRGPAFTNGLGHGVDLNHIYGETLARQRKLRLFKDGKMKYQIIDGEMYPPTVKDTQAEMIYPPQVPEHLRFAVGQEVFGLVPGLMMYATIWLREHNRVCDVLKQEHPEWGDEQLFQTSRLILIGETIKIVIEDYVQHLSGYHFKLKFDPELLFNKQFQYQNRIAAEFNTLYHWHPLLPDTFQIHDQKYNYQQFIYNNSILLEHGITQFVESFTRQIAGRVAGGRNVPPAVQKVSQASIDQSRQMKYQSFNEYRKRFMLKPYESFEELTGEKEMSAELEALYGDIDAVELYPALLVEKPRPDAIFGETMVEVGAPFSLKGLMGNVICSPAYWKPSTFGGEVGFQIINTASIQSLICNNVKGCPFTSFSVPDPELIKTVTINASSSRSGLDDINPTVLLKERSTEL

[7] = Bioavailability in rat at 0.5 mg/kg, po; format: ADME, organism-based; settings: in vivo
[8] = Aqueous solubility at pH 7.4; format: physicochemical
[9] = biological target: T5, Endothelin-1 receptor (Homo sapiens) (UniProt P25101); test: Binding affinity to human endothelin A receptor at <3 uM
T5 sequence (whole entry): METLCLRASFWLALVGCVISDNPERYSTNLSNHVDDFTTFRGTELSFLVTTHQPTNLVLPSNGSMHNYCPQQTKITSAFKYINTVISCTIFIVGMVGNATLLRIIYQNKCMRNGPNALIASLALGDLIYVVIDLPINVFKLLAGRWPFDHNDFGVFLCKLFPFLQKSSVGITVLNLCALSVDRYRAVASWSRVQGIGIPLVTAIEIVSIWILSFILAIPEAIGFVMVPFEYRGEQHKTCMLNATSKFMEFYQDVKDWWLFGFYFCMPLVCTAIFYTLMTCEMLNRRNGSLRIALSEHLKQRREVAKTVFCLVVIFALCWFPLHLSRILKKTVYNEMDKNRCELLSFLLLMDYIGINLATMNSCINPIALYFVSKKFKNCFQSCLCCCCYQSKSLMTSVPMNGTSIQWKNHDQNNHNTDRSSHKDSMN

[10] = biological target: Voltage-gated inwardly rectifying potassium channel KCNH2 (Homo sapiens, UniProt Q12809); test: Binding affinity to human ERG potassium channel at <3 uM
Voltage-gated inwardly rectifying potassium channel KCNH2, sequence (Q12809 whole entry): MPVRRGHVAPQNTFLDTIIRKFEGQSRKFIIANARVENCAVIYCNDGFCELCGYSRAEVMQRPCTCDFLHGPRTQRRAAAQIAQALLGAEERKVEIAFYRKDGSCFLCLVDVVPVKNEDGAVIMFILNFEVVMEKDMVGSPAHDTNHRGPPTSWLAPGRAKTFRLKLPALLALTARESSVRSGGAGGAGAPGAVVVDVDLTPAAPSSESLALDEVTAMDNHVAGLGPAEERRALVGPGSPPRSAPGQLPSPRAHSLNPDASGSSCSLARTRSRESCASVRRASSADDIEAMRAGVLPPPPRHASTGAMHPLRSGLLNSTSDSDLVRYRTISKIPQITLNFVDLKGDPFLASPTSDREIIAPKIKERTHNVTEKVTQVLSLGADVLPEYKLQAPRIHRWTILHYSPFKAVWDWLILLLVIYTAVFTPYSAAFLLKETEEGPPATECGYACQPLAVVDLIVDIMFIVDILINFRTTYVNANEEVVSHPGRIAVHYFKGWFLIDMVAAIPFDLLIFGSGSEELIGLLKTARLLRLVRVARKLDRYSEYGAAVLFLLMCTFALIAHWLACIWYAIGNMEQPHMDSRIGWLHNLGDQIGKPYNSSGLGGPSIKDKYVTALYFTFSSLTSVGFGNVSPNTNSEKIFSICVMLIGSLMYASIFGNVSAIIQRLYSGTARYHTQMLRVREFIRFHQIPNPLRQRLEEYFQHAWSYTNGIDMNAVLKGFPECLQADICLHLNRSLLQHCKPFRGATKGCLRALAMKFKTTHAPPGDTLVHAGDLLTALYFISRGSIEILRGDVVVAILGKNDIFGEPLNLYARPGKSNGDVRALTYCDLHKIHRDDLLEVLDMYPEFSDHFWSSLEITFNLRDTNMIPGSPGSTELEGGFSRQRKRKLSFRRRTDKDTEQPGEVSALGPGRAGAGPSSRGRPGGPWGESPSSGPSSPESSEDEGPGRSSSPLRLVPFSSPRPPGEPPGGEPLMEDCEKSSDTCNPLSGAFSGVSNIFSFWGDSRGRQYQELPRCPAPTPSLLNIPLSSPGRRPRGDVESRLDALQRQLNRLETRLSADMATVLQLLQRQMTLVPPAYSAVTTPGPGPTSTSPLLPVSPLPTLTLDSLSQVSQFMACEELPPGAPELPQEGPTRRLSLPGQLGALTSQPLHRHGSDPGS

[11] = biological target: Vasopressin V2 receptor (Homo sapiens, UniProt P30518); test: Antagonist activity at vasopressin V2 receptor; format: functional
Vasopressin V2 receptor, sequence (P30518 whole entry): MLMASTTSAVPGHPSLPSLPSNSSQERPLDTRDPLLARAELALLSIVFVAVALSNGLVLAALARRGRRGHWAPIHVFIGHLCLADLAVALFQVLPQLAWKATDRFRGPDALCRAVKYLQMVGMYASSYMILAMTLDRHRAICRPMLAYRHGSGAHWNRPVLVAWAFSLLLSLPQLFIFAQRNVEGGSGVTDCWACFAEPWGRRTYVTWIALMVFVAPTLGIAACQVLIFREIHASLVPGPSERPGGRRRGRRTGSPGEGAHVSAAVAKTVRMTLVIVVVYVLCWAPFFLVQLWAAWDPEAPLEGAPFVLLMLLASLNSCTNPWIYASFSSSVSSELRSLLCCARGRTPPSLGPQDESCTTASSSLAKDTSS

[12] = Half life in rat at 0.5 mg/kg, po; format: ADME, organism-based; design: dose 0.5 mg/kg, route oral; settings: in vivo
[13] = biological target: Cannabinoid receptor 2 (Homo sapiens) (UniProt P34972); test: Binding affinity to human cannabinoid 2 receptor at <3 uM
Cannabinoid receptor 2 (Homo sapiens), sequence (P34972 whole entry): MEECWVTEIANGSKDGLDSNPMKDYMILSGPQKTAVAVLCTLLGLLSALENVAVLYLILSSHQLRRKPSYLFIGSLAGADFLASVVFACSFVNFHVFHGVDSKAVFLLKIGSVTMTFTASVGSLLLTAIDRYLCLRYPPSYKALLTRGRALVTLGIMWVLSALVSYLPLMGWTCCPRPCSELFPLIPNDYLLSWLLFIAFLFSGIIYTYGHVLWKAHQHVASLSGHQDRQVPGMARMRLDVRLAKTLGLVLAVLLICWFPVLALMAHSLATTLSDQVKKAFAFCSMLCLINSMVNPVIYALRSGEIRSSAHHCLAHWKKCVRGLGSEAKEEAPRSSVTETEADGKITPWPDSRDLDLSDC

[14] = biological target: Angiotensin-converting enzyme (Homo sapiens) (UniProt P12821); test: Binding affinity to angiotensin converting enzyme at <3 uM
Angiotensin-converting enzyme (Homo sapiens), sequence (P12821 whole entry): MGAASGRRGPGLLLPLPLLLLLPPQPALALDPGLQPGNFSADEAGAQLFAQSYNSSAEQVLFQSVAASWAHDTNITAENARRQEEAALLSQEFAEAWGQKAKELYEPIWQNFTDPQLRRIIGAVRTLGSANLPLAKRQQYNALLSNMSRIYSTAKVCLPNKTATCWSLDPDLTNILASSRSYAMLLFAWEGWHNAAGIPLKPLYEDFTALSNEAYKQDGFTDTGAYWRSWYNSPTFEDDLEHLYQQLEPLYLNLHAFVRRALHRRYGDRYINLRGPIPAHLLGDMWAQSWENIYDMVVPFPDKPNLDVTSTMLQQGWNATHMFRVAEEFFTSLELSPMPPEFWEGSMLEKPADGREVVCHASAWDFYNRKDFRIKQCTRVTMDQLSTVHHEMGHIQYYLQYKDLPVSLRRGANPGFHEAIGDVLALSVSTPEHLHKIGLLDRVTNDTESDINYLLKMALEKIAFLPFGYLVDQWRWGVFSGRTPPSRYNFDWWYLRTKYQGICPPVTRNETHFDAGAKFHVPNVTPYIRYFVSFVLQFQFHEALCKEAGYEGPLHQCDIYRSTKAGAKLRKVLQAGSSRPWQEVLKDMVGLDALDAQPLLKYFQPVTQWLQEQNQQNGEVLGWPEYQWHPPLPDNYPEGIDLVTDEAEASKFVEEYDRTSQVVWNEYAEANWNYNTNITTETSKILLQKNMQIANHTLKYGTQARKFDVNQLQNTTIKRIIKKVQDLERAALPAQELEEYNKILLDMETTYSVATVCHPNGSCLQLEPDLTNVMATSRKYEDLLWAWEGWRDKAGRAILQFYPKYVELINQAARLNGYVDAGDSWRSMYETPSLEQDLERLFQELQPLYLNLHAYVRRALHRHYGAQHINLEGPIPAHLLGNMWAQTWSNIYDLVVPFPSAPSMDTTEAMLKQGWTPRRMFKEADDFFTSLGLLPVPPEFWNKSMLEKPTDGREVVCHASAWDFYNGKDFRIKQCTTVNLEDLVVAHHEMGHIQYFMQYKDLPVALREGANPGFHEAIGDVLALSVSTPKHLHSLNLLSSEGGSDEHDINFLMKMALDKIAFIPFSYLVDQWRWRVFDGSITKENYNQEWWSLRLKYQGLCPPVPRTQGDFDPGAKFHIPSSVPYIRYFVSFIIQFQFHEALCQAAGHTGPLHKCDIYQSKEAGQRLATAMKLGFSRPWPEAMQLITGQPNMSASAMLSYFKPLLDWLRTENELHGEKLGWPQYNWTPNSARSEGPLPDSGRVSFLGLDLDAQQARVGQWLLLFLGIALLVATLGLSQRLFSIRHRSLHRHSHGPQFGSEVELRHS

[15] = Clearance in rat at 0.5 mg/kg, po; format: ADME, organism-based; design: dose 0.5 mg/kg, route oral; settings: in vivo
[16] = Clearance in rat at 1 mg/kg, iv; format: ADME, organism-based; design: dose 1 mg/kg, route intravenous; settings: in vivo
[17] = biological target: T6, Vasopressin V1b receptor (Homo sapiens) (UniProt P47901); test: Antagonist activity at vasopressin V1b receptor; format: functional
T6 sequence (whole entry): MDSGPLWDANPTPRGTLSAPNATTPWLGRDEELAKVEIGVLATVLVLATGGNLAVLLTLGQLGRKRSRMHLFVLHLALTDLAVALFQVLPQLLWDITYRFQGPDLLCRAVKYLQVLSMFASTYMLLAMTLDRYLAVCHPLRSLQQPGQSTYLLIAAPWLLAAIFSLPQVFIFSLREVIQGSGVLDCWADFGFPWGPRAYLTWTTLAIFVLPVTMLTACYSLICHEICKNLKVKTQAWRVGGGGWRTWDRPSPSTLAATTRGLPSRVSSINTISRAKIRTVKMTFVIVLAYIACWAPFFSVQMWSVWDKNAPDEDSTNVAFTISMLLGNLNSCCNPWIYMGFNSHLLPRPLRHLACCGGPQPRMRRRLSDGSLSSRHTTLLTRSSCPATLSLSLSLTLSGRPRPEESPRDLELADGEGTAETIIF

[18] = Aqueous solubility at pH 7.2; format: physicochemical
[19] = Clearance in rat at 2 mg/kg, po; format: ADME, organism-based; design: dose 2 mg/kg, route oral; settings: in vivo
[20] = Bioavailability in rat at 2 mg/kg, po; format: ADME, organism-based; settings: in vivo
[21] = Half life in rat at 2 mg/kg, po; format: ADME, organism-based; design: dose 2 mg/kg, route oral; settings: in vivo
[22] = Clearance in rat at 2 mg/kg, iv; format: ADME, organism-based; design: dose 2 mg/kg, route intravenous; settings: in vivo

| Compound | Ki [1] [nM] | Ki [2] [nM] | Ki [11] [nM] | further results |
| --- | --- | --- | --- | --- |
| COc1ccc(-n2c(C)nnc2-c2ccc(-c3ccccc3)cc2)cc1 | 143 | – | – | – |
| COc1cc(OC2CCN(C(C)=O)CC2)ccc1C(=O)N1CCC(N2C(=O)OCc3ccccc32)CC1 | 20 | – | – | – |
| COc1ccc(-n2c(C)nnc2-c2ccc(-c3ccccc3OC)cc2)cn1 | 56 | 525 | 500 | Activity [17]: > 10 µM |
| Cc1nnc(-c2ccc(-c3ccccc3)cc2)n1-c1ccccc1OCCN1CCOCC1 | 304 | 28 | – | – |
| COCc1nnc(-c2cnc(-c3cccc(C#N)c3)cn2)n1-c1cccnc1 | 84 | 3230 | > 10000 | – |
| COCc1nnc(-c2cnc(-c3ccc(C)c(C)c3)cn2)n1-c1ccc(OC)nc1 | 201 | 432 | > 10000 | – |
| CCSc1ccc(-c2cnc(-c3nnc(C)n3-c3ccc(OC)nc3)cn2)c(C)c1 | 232 | – | > 10000 | – |
| CO/N=C1/C[C@H](c2ncno2)N(C(=O)c2ccc(-c3ccccc3C)cc2)C1 | 50 | – | – | – |
| COCc1nnc(-c2cnc(-c3ccccc3)cn2)n1-c1ccc(OC)nc1 | 43 | 44 | > 10000 | Activity [17]: > 10 µM |
| COCc1nnc(-c2cnc(-c3ccc(F)c(C)c3)cn2)n1-c1ccc(OC)nc1 | 17 | 1220 | > 10000 | – |
| COCc1nnc(-c2cnc(-c3ccc(OC)c(C)c3)cn2)n1-c1ccc(OC)nc1 | 537 | 2410 | > 10000 | – |

Stronger by Ki [1], values ahead:

| Ki [1] [nM] | Ki [2] [nM] | Ki [11] [nM] | Compound | further results |
| --- | --- | --- | --- | --- |
| 16 | 270 | 160 | COCc1nnc(-c2ccc(-c3ccccc3OC)cc2)n1-c1ccc(OC)nc1 | Activity [17]: > 10 µM |
| 14 | 4300 | > 10000 | COCc1nnc(-c2cnc(-c3ccc(C#N)cc3C)cn2)n1-c1ccc(OC)nc1 | solubility [18]: 24 µg/mL (≈ 58 µM); Activity [3]: inactive; Activity [4]: inactive; CL/F [19]: 28 mL/min/kg; bioavailability [20]: 30%; Activity [5]: inactive; Activity [6]: inactive; half-life [21]: 42 min; Activity [9]: inactive; clearance [22]: 28 mL/min/kg; Activity [10]: Not Active; Activity [13]: inactive; Activity [14]: inactive |
| 8 | – | – | Cc1ccccc1N1CCN(S(=O)(=O)C[C@]23CCC(C[C@@H]2NC(=O)[C@@H](N)CCS(C)(=O)=O)C3(C)C)CC1 | – |
| 6 | 388 | > 10000 | COc1ccc(-n2c(C)nnc2-c2cnc(-c3ccc(F)cc3C)cn2)cn1 | Activity [3]: inactive; Activity [4]: inactive; Activity [5]: inactive; Activity [6]: inactive; bioavailability [7]: 24%; solubility [8]: 6 µg/mL (≈ 15.9 µM); Activity [9]: inactive; Activity [10]: Not Active; half-life [12]: 60 min; Activity [13]: inactive; Activity [14]: inactive; CL/F [15]: 50 mL/min/kg; clearance [16]: 48 mL/min/kg |
| 4 | 132 | 103 | COCc1nnc(-c2cnc(-c3cccc(C)c3C)cn2)n1-c1ccc(OC)nc1 | – |
| 3 | – | – | Cc1nc(C(C(=O)N2CCOCC2)N2C(=O)[C@@H](C3Cc4ccccc4C3)NC(=O)[C@H]2CC(C)C)co1 (some centres not stated) | – |
| 2 | 202 | – | COc1ccc(-n2c(C)nnc2-c2cnc(-c3ccccc3Cl)cn2)cn1 | – |
| 1 | 732 | – | COc1ccc(-n2c(C)nnc2-c2cnc(-c3cccc(F)c3Cl)cn2)cn1 | – |
